Results on five compounds are retold here after patent US20120165325A1, “Stable forms of N-(2,6-Dimethyl-4-morpholin-4-yl-phenyl)-3,3-dimethyl-butyramide” (H. Lundbeck A/S, priority 2009, published 2012).

Where only a bound is given, the exact number is not on record here.

For data set [1], the system named is Male Wistar rats. Description: Amphetamine challenge: antagonism of d-amphetamine induced hyperactivity. In kind it is in vivo. Particulars: rat; s.c. 30 min before d-amphetamine sulphate 0.5 mg/kg; motility over 2 hours; std. dev. in brackets. On the procedure: Subjects. Male Wistar rats (Taconic, Denmark) weighing 170-240 g are used. The animals were housed under a 12-hr light/dark cycle under controlled conditions for regular in-door temperature (21±2° C.) and humidity (55±5%) with food and tap water available ad libitum. Eight rats were used at each dose level and in the parallel control group receiving the vehicle to the test compound plus d-amphetamine and the group receiving vehicle injections only.
Experimental procedure. The experiment was made in normal light conditions in an undisturbed room. The test substance was injected 30 min before s.c. before the injection of d-amphetamine sulphate (0.5 mg/kg). Immediately after injection of d-amphetamine, the rats were placed individually in the test cages that were placed in a U-frame, equipped with 4 infrared light sources and photocells. The light beams crossed the cage 4 cm above the cage floor. Recording of a motility count required interruption of adjacent light beams, thus avoiding counts induced by stationary movements of the rat. Motility (counts) was recorded for a period of 2 hours. The mean motility induced by vehicle (saline) treatment in the absence of d-amphetamine was used as baseline. The 100 percent effect of d-amphetamine was accordingly calculated to be total motility counts minus baseline. The response in groups receiving test compound was thus determined by the total motility counts minus baseline, expressed in percent of the similar result recorded in the parallel amphetamine control group. The percent responses were converted to percent inhibition from which ED50 values were calculated by means of log-probit analyses. In a parallel set of data, the potential sedative properties (motility inhibition) of the test compounds were evaluated using essentially the same procedure with the exception of not administering d-amphetamine-sulphate at the initiation of locomotor assessment.

Data set [2] relates to Male NMRI mice. As to the kind of experiment: Amphetamine sensitisation: inhibition of the sensitised behavioural response to amphetamine. To be noted: amphetamine-pretreated mice, s.c. 30 min before D-amphetamine challenge 1.25 mg/kg s.c., 30 min test, S.D. in brackets. Format: in vivo, mouse. On the procedure: Subjects. […] The animals were housed 6 mice pr cage in a 12-hr light/dark cycle under controlled conditions for regular in-door temperature (21±2° C.) and humidity (55±5%) with food and tap water available ad libitum.
Experimental procedure. […] 5×8 infrared light sources and photocells interspaced by 4 cm monitor the locomotor activity.
Administration of compounds.
Data analyses. […] A therapeutic index value can subsequently be calculated by dividing the first ED50 by the second.

In data set [3] the test system is Male NMRI mice. As to the kind of experiment: Forced swim test. Format: in vivo, mouse. To be noted: 30 min before test, last 3 min of 6 min swim, vehicle = 100. On the procedure: Subjects. Male NMRI mice (Charles River) weighing 23-25 g were used. The mice were kept 8 mice pr cage in a 12-hr light/dark cycle under controlled conditions for regular in-door temperature (21±2° C.) and humidity (55±5%) with food and tap water available ad libitum. 8 mice were used pr experimental group.
Experimental procedure. The mice were placed in 2000 ml beaker containing 1200 ml of tempered water (25° C.) and left to swim for 6 min. The performance of the mice was video recorded, digitalized and analysed by means of a digital analysis system (Bioobserve). The time spent immobile for the last 3 min. of the test session was quantified for each mouse.
Treatment. 30 min. before the test, mice were treated s.c. with N-(2,6-dimethyl-4-morpholin-4-yl-phenyl)-3,3-dimethyl-butyramide or vehicle (10-%-2-OH-propyl-cyclodextrin, 10 ml/kg). In addition as positive control, imipramine-HCl (40 mg/kg) and a saline control (10 ml/kg) was included.
Analyses. The time spent immobile was statistically compared across the experimental groups against the relevant control group by means of one-way analysis of variance. A post-hoc test (Student-Newman-Keuls) was employed when appropriate. P-levels <0.05 were considered significant.

The nature of data set [4]: Solid form stability at 60° C. and 95% relative humidity. In kind it is physicochemical. To be noted: relative humidity of 95%.
Data set [5] in a line: Intrinsic dissolution rate (37C). Format: physicochemical.
In data set [6] the test system is Male Wistar rats. As to the kind of experiment: Motility inhibition (potential sedative properties, without d-amphetamine). In kind it is in vivo. Particulars: rat, std. dev. in brackets. The source says: Subjects. Male Wistar rats (Taconic, Denmark) weighing 170-240 g are used.
Experimental procedure. […] Recording of a motility count required interruption of adjacent light beams, thus avoiding counts induced by stationary movements of the rat.

For data set [7], the system named is Male NMRI mice. As to the kind of experiment: Inhibition of baseline motility in vehicle-pretreated, vehicle-challenged mice. In kind it is in vivo, mouse. Particulars: 30 min test. On the procedure:
Subjects. Male NMRI mice (Charles River) weighing approx. 35 g were used. The animals were housed 6 mice pr cage in a 12-hr light/dark cycle under controlled conditions for regular in-door temperature (21±2° C.) and humidity (55±5%) with food and tap water available ad libitum. 12 mice were used pr experimental group.
Experimental procedure. All mice were pre-treated once daily for five days with either d-amphetamine sulphate (2.5 mg/kg s.c.) or saline (10 ml/kg). For the 17 days between the last day of pre-treatment and the test day, the animals were kept in their home cage receiving the standard care as described above. […] The recording of a motility counted requires interruption of adjacent light beams, thereby avoiding counts induced by stationary movements of the mice. […]
Data analyses. […] That is, the response in amphetamine-sensitized groups receiving test compound was thus determined as the sensitised response minus the baseline motility, expressed in percent of the similar result recorded in the sensitized amphetamine response group. […] Similarly, an ED50 for inhibiting baseline motility was calculated by expressed the motility response in vehicle-pretreated, vehicle-challenged, drug-treated animals relative to the baseline motility response. A therapeutic index value can subsequently be calculated by dividing the first ED50 by the second.

Turning to `Cc1cc2c(s1)Nc1ccccc1N=C2N1CCN(C)CC1` [Olanzapine, reference compound], the ED50 in data set [1] stood at 0.21 mg/kg; in data set [2] (Mus musculus) it was 0.11 mg/kg. Besides, the results for the “Immobility in % (±S.D.)” value in data set [3] (dose 0.31 mg/kg) and in data set [3] (dose 1.3 mg/kg) were 96% and 95%, respectively.
Turning to `Cc1cc(N2CCOCC2)cc(C)c1NC(=O)CC(C)(C)C` [α form, N-(2,6-Dimethyl-4-morpholin-4-yl-phenyl)-3,3-dimethyl-butyramide, α form], the “Stability: solid form stable for” value in data set [4] (listed as α) was “Solid form stable for >90 days at 60 °C”. The “Intrinsic dissolution rate (37C)” value in data set [5] (listed as α) was 0.021 mg//cm^2/min.
Take `Cc1cc(N2CCOCC2)cc(C)c1NC(=O)CC(C)(C)C` [β form, N-(2,6-Dimethyl-4-morpholin-4-yl-phenyl)-3,3-dimethyl-butyramide, β form]: in data set [4] (listed as β), the “Stability: solid form stable for” value was “Solid form stable for >90 days at 60 °C”. In data set [5] (listed as β), the “Intrinsic dissolution rate (37C)” value stood at 0.026 mg//cm^2/min.
`Cc1cc(N2CCOCC2)cc(C)c1NC(=O)CC(C)(C)C` [γ form, N-[2,6-Dimethyl-4-morpholin-4-yl-phenyl]-3,3-dimethyl-butyramide, γ form]: in data set [4] (listed as γ), the “Stability: solid form stable for” value is “Solid form stable for >14 days at 60 °C”. In data set [5] (listed as γ), the “Intrinsic dissolution rate (37C)” value stood at 0.036 mg//cm^2/min.
As to Lithium-chloride, in data set [1], the “Amphetamine antagonism ED50 ± std. dev.” value is given as 12 (1.7) mg/kg. In addition, the “Inhibition of amphetamine sensitised response. ED50 (±S.D.)” value in data set [2] is 34 (7.2) mg/kg. For the same compound, in data set [6], the “Motility inhibition ED50 ± std. dev.” value is given as above 40 mg/kg. In addition, the “Inhibition of baseline motility. ED50 (±S.D.)” value in data set [7] was >>40 mg/kg.
